Results as given in PMC9202104 (BMC Biology, 2022).
Like-named read-outs stand apart in the source and are kept apart here.

How the values were obtained:
[1] = system: ZIKV human strain IbH 30656; experiment: Plaque assay, inhibition of ZIKV infection (strain IbH 30656); format: cell-based; settings: Zika virus, Vero C1008; plaque assay, Vero E6 cells, human strain; read-out: IC50 IbH 30656
Procedure: (§1) After removal of the unbound compounds by centrifugation (after addition of 3% PEG-6000), ZIKV was incubated with Vero E6 cells in 24-well plates at 37°C for 1 h. The cells were then washed with PBS, overlaid with DMEM containing 1% carboxymethyl cellulose and 2% FBS, and cultured at 37°C for 4–5 days, followed by being stained with 0.5% crystal violet. […] Plaques in each well were calculated, and IC50 of compounds for each compound was calculated using the CalcuSyn computer program.

DENV-1-V1792 = experiment: Plaque assay, inhibition of DENV-1 infection in LLC-MK2 cells; format: cell-based; settings: Dengue virus, DENV1
[2] = target: T1, ZIKV full-length envelope (E) protein (Zika virus, UniProt Q32ZE1); experiment: ELISA binding to ZIKV full-length E protein
T1 construct: ZIKV full-length E (Aviva Systems Biology, San Diego, CA, USA); purchased Aviva Systems Biology
Procedure: (§2) Briefly, ELISA plates were coated with each protein (1 μg/ml) at 4°C overnight and were then incubated with blocking buffer containing 2% fat-free milk in PBST (0.05% Tween-20) at 37°C for 2 h. The above compounds, or DMSO control, at serial dilutions were added to the plates and incubated at 37°C for 2 h. After three washes using PBST, the plates were incubated at 37°C for 2 h with ZIKV EDIII-specific human mAb ZKA64-LALA (0.5 μg/ml) (for binding to ZIKV full-length E or EDIII protein), or ZIKV NS2B-NS3-specific mouse sera (for binding to NS2B-NS3 protein). After further washes, the plates were incubated with horseradish peroxidase (HRP)-conjugated anti-human IgG-Fab (1:3,000, Abcam, Cambridge, MS, USA) or anti-mouse IgG (1:3,000, Sigma) antibody at 37°C for 1 h. The plates were incubated with substrate TMB (3,3′,5,5′-tetramethylbenzidine) for 1 min, and the reaction was stopped by addition of 1 N H2SO4. Absorbance at 450 nm (A450 values) was measured by an ELISA microplate reader. Percent binding (% binding) to the E, EDIII, or NS2B-NS3 protein was calculated in the presence or absence of serially diluted compounds using the formula ((1-(E/EDIII/NS2B-NS3-compound)/(E/EDIII/NS2B-NS3))×100), based on which EC50 was calculated using the CalcuSyn program.

[3] = system: ZIKV human strain R116265; experiment: Plaque assay, inhibition of ZIKV infection (strain R116265); format: cell-based; settings: Zika virus, Vero C1008, Vero E6 cells
Procedure: as §1

ZIKV EDIII protein [4] = target: T2, ZIKV EDIII protein (Zika virus, UniProt A0A024B7W1); experiment: SPR binding to ZIKV EDIII
T2 construct: EDIII (residues 298-409 in E protein containing a C-terminal human Fc tag); human Fc (C)
Procedure: (GE Healthcare, Port Washington, NY, USA). Briefly, ZIKV EDIII protein or NS2B-NS3 protein was immobilized on a sensor chip (CM5) using the Amine Coupling Kit (GE Healthcare). Serially diluted ST087010 was added as analytes, and HBS-EP with 10% DMSO (10 mM HEPES, 150 mM NaCl, 3 mM EDTA, 0.05% Tween-20, 10% DMSO, pH 7.4) was used as a running buffer. Biacore BK evaluation software (version 1.1) was applied to analyze the data, and the curve was fitted with a 1:1 binding model.

in vitro = format: cell-based; settings: rhesus monkey
Procedure: Briefly, compounds at 2-fold serial dilutions were added to the respective cells (2.0×10^4/well) pre-seeded in 96-well plates. The cells were cultured at 37°C in the presence of 5% CO2 for 3 days, […] incubated with CCK8 solution, followed by measurement of absorbance at 450 nm (A450 value), using a microplate reader (Infinite F200PRO, Tecan, Morrisville, NC, USA). CC50 of compounds was calculated using the CalcuSyn program.

ZIKV NS2B-NS3 protein = target: T3, ZIKV NS2B-NS3 protein (Zika virus, UniProt Q32ZE1); experiment: ELISA binding to ZIKV NS2B-NS3 protein
T3 construct: fused with the genes encoding NS3 protein (residues 1-185) through a linker (Gly4-Thr-Gly4); His6 (C); made in house; host or cells: E. coli
Procedure: as §2

[5] = target: T4, binding of ZIKV EDIII to EDIII-specific neutralizing mAbs (Zika virus, UniProt A0A024B7W1); experiment: ELISA competition assay, EDIII-mAb binding; settings: for IC50: mAb 0.5 μg/mL
T4 construct: EDIII (residues 298-409 in E protein containing a C-terminal human Fc tag); human Fc (C)
Procedure: ELISA was also used to determine the ability of ST087010 to inhibit the binding between ZIKV EDIII and EDIII-specific human mAbs (SMZAb5, ZKA64-LALA, ZV-67, or Z004) or EDI/II-specific human mAb (ZKA78) control. […] The plates were then sequentially incubated with HRP-conjugated anti-human IgG-Fab antibody and TMB substrate, followed by detection of A450 values. Percent inhibition (% inhibition) of compounds was calculated using the formula ((1-(EDIII-mAb-compound)/(EDIII-mAb))×100), and IC50 was obtained using the CalcuSyn computer program.

ZIKV human strain FLR = experiment: Plaque assay, inhibition of ZIKV infection (strain FLR); format: cell-based; settings: Zika virus, Vero C1008; plaque assay, Vero E6 cells, human strain; read-out: IC50 FLR
Procedure: as §1

ZIKV NS2B-NS3 protease = target: T5, ZIKV NS2B-NS3 protease (Zika virus, UniProt Q32ZE1); experiment: Fluorescence-based NS2B-NS3 protease inhibition assay; format: biochemical
T5 construct: fused with the genes encoding NS3 protein (residues 1-185) through a linker (Gly4-Thr-Gly4); His6 (C); made in house; host or cells: E. coli
Procedure: Substrate (benzoyl-norleucinelysine-lysine-arginine 7-amino-4-methylcoumarine (Bz-Nle-Lys-Lys-Arg-AMC, 4 μM)) (Bachem, Torrance, CA, USA) was added and incubated for 10 min. Fluorescence intensity was then measured at 460 nm (with excitation at 355 nm) using a microplate reader (FLUOstar Omega, BMG Labtech, USA). A total of 10 mM Tris-HCl, 20% glycerol, 1 mM CHAPS, and 5% DMSO (pH 8.5) were used as reaction and dilution buffers. Percent inhibition (% inhibition) of protease activity was measured in the presence or absence of serially diluted compounds based on the formula ((1-(NS2B-NS3-substrate-compound)/(NS2B-NS3-substrate))×100).

[6] = system: ZIKV human strain PAN2016 (2016/Panama); experiment: Plaque assay, inhibition of ZIKV infection (strain PAN2016)
Procedure: as §1

ZIKV EDIII protein [7] = target: T2, ZIKV EDIII protein; experiment: ELISA binding to ZIKV EDIII protein
Procedure: as §2

T4 sequence (A0A024B7W1 588-699): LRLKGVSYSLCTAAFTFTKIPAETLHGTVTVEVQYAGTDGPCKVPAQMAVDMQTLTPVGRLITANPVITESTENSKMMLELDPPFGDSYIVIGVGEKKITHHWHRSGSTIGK
T2 sequence (A0A024B7W1 588-699): as above
T3 sequence (Q32ZE1 1499-1683, added parts left off, change not shown): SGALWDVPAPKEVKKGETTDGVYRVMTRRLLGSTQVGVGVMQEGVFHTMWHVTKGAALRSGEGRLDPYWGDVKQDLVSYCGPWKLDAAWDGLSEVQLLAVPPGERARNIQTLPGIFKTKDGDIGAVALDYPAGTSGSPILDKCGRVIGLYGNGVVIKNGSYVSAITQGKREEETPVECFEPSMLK
T5 sequence (Q32ZE1 1499-1683, added parts left off, change not shown): as above
T1 sequence (Q32ZE1 291-790): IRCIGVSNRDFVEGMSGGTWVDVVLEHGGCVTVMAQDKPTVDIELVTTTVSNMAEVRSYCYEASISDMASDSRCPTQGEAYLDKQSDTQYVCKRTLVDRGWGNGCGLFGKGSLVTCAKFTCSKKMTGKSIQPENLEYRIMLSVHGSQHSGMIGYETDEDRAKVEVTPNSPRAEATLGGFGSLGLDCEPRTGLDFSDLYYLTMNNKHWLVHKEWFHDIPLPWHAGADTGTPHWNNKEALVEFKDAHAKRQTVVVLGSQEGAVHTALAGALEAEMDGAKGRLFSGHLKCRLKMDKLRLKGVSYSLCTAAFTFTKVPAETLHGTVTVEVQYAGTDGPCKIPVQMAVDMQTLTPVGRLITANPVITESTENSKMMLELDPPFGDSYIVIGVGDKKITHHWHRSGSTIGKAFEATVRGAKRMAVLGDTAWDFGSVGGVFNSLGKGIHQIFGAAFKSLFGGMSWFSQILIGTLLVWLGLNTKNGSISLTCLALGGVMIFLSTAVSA

Compound: Cc1cc2c(C(C)C)c(O)c(O)c(/C=N/n3c(=O)[nH][nH]c3=O)c2c(O)c1-c1c(C)cc2c(C(C)C)c(O)c(O)c(/C=N/n3c(=O)[nH][nH]c3=O)c2c1O [ST087010]
- IC50 [1]: 2.9 µM
- IC50 (DENV-1-V1792): 3.01 ± 0.11 µM
- EC50 [2]: 6.47 µM
- IC50 [3]: 2.9 µM
- Kd (ZIKV EDIII protein [4]): 4.95 µM
- CC50 at 3 days (in vitro): 47.2 ± 1.35 µM
- EC50 (ZIKV NS2B-NS3 protein): 21.9 µM
- Inhibition with EDI/II-specific mAb control ZKA78 ([5]; ELISA competition, ZKA78 did not bind to EDIII): no inhibition
- IC50 ([5]; IC50 blocking EDIII binding to mAb SMZAb5, ELISA competition): 5.72 µM
- IC50 ([5]; IC50 blocking EDIII binding to mAb Z004, ELISA competition): 44.5 µM
- IC50 ([5]; IC50 blocking EDIII binding to mAb ZKA64-LALA, ELISA competition): 4.17 µM
- IC50 ([5]; IC50 blocking EDIII binding to mAb ZV-67, ELISA competition): 6.7 µM
- IC50 (ZIKV human strain FLR): 2.8 µM
- IC50 (ZIKV NS2B-NS3 protease): 4.84 µM
- SI (CC50/IC50) ([6]; CC50 Vero E6 / IC50 ZIKV PAN2016): 15.63
- IC50 ([6]; Zika virus, Vero C1008, in Homo sapiens, read-out: IC50 against infection of ZIKV PAN2016, plaque assay, Vero E6 cells): 3.2 µM
- IC50 ([6]; read-out: IC50 against infection of ZIKV PAN2016, plaque assay, Vero E6 cells): 3.17 ± 0.18 µM
- EC50 (ZIKV EDIII protein [7]): 6.13 µM
